Experimental data taken from USRE39616E1, “Aminoindan derivatives” (priority 1996, dated 2007).
Counter-ions that a name gives are not always drawn. Like-named read-outs stand apart in the source and are kept apart here.

Key:
[1] = target: T1, Human erythrocyte acetylcholinesterase (Homo sapiens, UniProt P22303); assay: biochemical; assay type: biochemical
T1 construct: Human erythrocyte acetylcholinesterase (type XIII, Sigma Israel); purchased Sigma Israel type XIII; host or cells: human erythrocytes
Description: Human erythrocyte acetylcholinesterase (type XIII, Sigma Israel), was prepared in a stock solution of 1 U/ml, containing Triton (1%) and bovine serum albumin (0.05%) in phosphate buffer (pH 8). The enzyme (0.05U) was incubated with 3-5 different concentrations of test compound (in triplicate) for periods of from 15 to 60 minutes at 37° C. […] The percentage inhibition of AChE by each concentration of drug is calculated by comparison with that of enzyme in the absence of drug.

[2] = target: T2, MAO-A (Rattus norvegicus, UniProt P21396); assay: Inhibition of MAO activity in vitro, 5-HT as substrate; assay type: biochemical; set-up: The MAO enzyme source was a homogenate of rat brain in 0.3M sucrose; from tissue; host or cells: rat brain homogenate, 600 g supernatant; conditions: 5-HT substrate
T2 sequence (P21396 1-526): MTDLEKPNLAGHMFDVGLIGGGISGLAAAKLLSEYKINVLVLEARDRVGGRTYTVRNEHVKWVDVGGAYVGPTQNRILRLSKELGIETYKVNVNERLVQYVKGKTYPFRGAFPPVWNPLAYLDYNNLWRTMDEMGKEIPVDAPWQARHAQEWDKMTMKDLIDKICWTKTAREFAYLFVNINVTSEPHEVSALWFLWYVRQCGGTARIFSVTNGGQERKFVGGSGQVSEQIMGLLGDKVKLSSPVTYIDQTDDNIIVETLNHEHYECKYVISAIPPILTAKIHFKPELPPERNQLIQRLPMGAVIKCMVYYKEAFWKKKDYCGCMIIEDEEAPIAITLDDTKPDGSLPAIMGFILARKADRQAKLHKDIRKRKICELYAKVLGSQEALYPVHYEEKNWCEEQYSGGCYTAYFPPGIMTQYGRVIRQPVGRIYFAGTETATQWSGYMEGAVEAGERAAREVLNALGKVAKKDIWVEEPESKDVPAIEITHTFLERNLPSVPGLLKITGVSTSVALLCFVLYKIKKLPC
Description: (§1) Substrate concentrations used were 50 μM (PEA) and 1 mM (5-HT).

[3] = test system: mice, hypobaric hypoxic model; assay: animal or person; assay type: in vivo; conditions: for response vs control in vivo at 0.2 mg/kg: 0.2 mg/kg sc
Source text: A 12 liter desiccator (desiccator A) and a 2.5 liter desiccator (desiccator B) were separately connected to a vacuum pump. Desiccator B was disconnected and allowed to equilibrate with room air whilst desiccator A was evacuated to a pressure of 100 mmHg. Four male ICR albino mice (22-28 g) were placed in desiccator B. Desiccator B was then closed to room air and connected to desiccator A. The pressure inside desiccator B was monitored using a mercury manometer and at the point were the pressure in desiccator B reached 200 mmpg (usually within 14 seconds), the two desiccators were disconnected from the vacuum pump and the pump switched off. The survival time from the moment of induction of hypoxia to the time of cessation of respiration was recorded for each mouse for a maximum of 15 minutes after which time room air was reintroduced to desiccator B. Survivors were monitored for signs of lethargy or vitality.
Effect of drug treatment was assessed as the percent of the survival time of the drug treated group with respect to the saline injected or vehicle injected control group. […] The effect of each dose of test drug was determined in duplicate i.e. two groups of 4 mice.
Positive reference drugs were sodium pentobarbital at a dose of 40 mg/kg, and diazepam 10 mg/kg given 0.5 h prior to hypoxia, physostigmine 0.2 and 0.4 mg/kg and neostigmine 0.2 mg/kg given sc 30 min before hypoxia. Methyl atropine 1 mg/kg was given sc. 10 min. before physostigmine.
Test drugs were dissolved in 0.9% saline, and injected sc. in the nip of the neck at a dose in accordance with body weight, 60-90 min. before hypoxia. The volume of injection was 0.2-0.3 mL per mouse (10 mL/kg). The initial dose was about one third of the reported LD50 for acetylcholine esterase inhibition. If no protection could be obtained, the dose was further increased to the nearest non-toxic dose. In case of protection, the dose was further reduced in an attempt to locate the “protective” dose range.

[4] = target: T3, whole brain AChE (Mus musculus, UniProt P21836); conditions: for AChE Inhibition Ex vivo ED50 (AC): mice, whole brain, at peak of activity
T3 sequence (P21836 32-614): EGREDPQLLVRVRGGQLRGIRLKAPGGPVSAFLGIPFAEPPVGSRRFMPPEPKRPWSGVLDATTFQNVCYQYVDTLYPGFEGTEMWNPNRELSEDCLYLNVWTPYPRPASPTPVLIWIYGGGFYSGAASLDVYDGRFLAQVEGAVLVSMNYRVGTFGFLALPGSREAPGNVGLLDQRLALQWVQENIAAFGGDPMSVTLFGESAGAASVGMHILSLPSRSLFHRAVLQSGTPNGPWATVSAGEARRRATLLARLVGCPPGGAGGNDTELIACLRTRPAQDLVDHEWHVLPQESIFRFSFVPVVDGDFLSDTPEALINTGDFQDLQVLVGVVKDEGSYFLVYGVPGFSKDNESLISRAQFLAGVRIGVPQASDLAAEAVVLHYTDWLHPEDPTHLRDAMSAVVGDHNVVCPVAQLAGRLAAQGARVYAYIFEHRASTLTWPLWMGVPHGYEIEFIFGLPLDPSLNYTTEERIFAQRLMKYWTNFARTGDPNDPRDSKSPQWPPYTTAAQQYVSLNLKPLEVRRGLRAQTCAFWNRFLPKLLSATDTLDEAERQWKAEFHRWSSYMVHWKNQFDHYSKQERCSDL
Description: Test drugs or saline were administered sub-cutaneously to male mice (Sabra strain, 28-35 g). […] The mice were sacrificed 15, 30, 50, 70, 90, 120 or 180 minutes after drug administration, the brains rapidly removed (minus cerebellum), weighed and homogenized in 0.1 M phosphate buffer, pH 8.0, containing Triton (1 mg/100 g tissue) and centrifuged to remove cell debris. Aliquots (25 μl) of the supernatant were then incubated with acetylthiocholine and DTNB. AChE activity was measured as described above. The % inhibition of whole brain AChE by each dose of drug was calculated by comparison with enzyme activity from 3 saline treated control mice run at the same time.

[5] = test system: mice; conditions: mice, within 6 hours after administration
Description: Therapeutic Ratio was calculated as LD50 divided by ED50 of ex vivo acetylcholine esterase inhibition.

[6] = target: T4, MAO-A (Mus musculus, UniProt Q64133); assay: Inhibition of MAO activity ex vivo (brain); assay type: in vivo, mice; conditions: mice, brain tissue
T4 construct: from tissue; host or cells: mouse brain
T4 sequence (Q64133 1-526): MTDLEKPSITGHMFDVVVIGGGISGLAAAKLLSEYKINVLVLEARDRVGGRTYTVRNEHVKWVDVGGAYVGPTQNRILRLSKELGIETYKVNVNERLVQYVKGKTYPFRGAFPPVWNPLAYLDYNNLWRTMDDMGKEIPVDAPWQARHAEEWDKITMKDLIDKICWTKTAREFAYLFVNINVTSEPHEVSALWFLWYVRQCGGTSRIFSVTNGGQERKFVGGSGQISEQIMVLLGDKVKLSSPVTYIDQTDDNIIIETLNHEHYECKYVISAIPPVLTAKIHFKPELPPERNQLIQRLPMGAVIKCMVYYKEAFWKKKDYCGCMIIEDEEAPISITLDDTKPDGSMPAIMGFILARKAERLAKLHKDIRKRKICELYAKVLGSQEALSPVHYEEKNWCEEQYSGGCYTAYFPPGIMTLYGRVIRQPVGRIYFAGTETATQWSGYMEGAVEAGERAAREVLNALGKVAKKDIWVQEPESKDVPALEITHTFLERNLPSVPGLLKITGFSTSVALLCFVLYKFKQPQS
Description: as §1
(§2) Male Sabra mice, weighing 45-50 g were injected with test compound solutions (prepared in 0.9% saline). Each dose was administered to two or three mice. The mice were sacrificed two hours after drug administration or at a time corresponding to the peak AChE inhibition time (see Table 11). The brain and liver were rapidly dissected and stored in appropriate vials on ice. The tissues were weighed, diluted to ½ in sucrose 0.3M and stored at −20° C. before performance of the MAO assay described above. The results given in Table 11 relate to measurements made on brain tissue only.

[7] = target: T5, MAO-B (Mus musculus, UniProt Q8BW75); assay: Inhibition of MAO activity ex vivo (brain); assay type: in vivo, mice; conditions: mice, brain tissue
T5 construct: from tissue; host or cells: mouse brain
T5 sequence (Q8BW75 1-520): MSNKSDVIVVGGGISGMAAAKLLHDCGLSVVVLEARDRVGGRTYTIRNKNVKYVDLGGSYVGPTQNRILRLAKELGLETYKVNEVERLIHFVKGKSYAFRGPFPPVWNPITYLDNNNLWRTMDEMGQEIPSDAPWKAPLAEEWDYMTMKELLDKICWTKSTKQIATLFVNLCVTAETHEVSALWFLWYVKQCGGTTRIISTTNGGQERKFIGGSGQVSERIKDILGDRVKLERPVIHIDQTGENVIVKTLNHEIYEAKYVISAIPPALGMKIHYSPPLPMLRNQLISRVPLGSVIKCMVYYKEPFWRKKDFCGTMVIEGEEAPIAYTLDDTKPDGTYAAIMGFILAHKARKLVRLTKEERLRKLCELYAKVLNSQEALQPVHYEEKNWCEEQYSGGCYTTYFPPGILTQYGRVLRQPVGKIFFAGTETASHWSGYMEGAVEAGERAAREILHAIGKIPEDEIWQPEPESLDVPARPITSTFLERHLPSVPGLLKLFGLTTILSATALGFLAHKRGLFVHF
Description: as §1, §2

[8] = read-out: AChE Inhibition In vitro IC50
[9] = Mus musculus, 30 min before hypoxia, read-out: Protection (survival time)
[10] = human erythrocyte AChE, at time of peak activity, read-out: AChE Inhibition In vitro IC50

T1 sequence (P22303 32-617 isoform P22303-2 limits assumed): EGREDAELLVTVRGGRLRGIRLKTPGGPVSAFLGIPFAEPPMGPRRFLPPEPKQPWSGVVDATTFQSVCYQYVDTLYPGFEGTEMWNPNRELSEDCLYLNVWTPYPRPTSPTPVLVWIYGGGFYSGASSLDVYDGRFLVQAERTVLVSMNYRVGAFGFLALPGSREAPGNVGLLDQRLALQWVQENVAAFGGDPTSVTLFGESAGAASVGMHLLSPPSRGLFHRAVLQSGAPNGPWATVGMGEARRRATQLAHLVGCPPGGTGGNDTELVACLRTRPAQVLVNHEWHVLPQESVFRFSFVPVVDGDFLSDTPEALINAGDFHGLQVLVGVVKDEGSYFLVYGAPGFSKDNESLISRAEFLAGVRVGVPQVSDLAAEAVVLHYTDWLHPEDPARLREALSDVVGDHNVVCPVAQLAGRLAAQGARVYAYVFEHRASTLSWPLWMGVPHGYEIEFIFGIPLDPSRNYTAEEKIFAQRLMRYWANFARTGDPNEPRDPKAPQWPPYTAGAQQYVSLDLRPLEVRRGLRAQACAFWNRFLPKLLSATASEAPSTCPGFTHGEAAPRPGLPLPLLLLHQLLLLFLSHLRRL

Structure (SMILES): CCCN(C)C(=O)Oc1ccc2c(c1)C(N)CC2 (stereo not drawn) [Compound 2]
- IC50 [1, 8]: 7.3 µM
- IC50 ([2]; rat brain homogenate, read-out: MAO-A Inhibition In vitro IC50): 32 µM

Structure (SMILES): C#CCNC1CCc2ccc(OC(=O)N(C)CCCC)cc21 (stereo not drawn) [Compound 87]
- IC50 [1, 8]: 9.1 µM

Structure (SMILES): CN(C(=O)Oc1ccc2c(c1)C(N)CC2)C1CCCCC1 (stereo not drawn) [Compound 17]
- IC50 [1, 8]: 4 µM

Structure (SMILES): C#CCNC1CCc2ccc(OC(=O)N(C)CC)cc21 (stereo not drawn) [Compound 60]
- IC50 ([1]; AChE Inhibition In vitro IC50): 42 µM

Structure (SMILES): CN(C)C(=O)Oc1ccc2c(c1)C(N(C)C)CC2 (stereo not drawn) [Compound 12]
- response vs control in vivo at 7 mg/kg ([3]; Mus musculus, sc, read-out: Protection (survival time), 7 mg/kg sc, 60 min before hypoxia): 248 ± 97%
- response vs control in vivo at 10 mg/kg ([3]; Mus musculus, sc, read-out: Protection (survival time), 10 mg/kg sc, 60 min before hypoxia): 386 ± 238%
- response vs control in vivo at 15 mg/kg ([3]; Mus musculus, sc, read-out: Protection (survival time), 15 mg/kg sc, 60 min before hypoxia): 649 ± 221%
- response vs control in vivo at 20 mg/kg ([3]; Mus musculus, sc, read-out: Protection (survival time), 20 mg/kg sc, 60 min before hypoxia): 725 ± 128%
- AChE Inhibition Ex vivo ED50 (AC) [4]: 8.0 µmol/kg
- AChE Inhibition Time to peak activity t ([4]; mouse, in vivo): 15 min
- Acute Toxicity LD50 (LD) [5]: <20 µmol/kg

Structure (SMILES): CNC1CCc2cccc(OC(=O)N(C)C)c21 (stereo not drawn) [Compound 9]
- AChE Inhibition Ex vivo ED50 (AC) [4]: 19 µmol/kg
- AChE Inhibition Time to peak activity t ([4]; mouse, in vivo): 15 min
- Acute Toxicity LD50 (LD) [5]: 93 µmol/kg

Structure (SMILES): C#CCNC1CCc2ccc(OC(=O)N(C)CCCC)cc21 (stereo not drawn) [Compound 86]
- IC50 [1, 8]: 10.5 µM

Structure (SMILES): C#CCN(C)C1CCc2ccc(OC(=O)N(C)CC)cc21 (stereo not drawn) [Compound 30]
- IC50 [1, 8]: 1300 µM

Structure (SMILES): CNC(=O)Oc1ccc2c(c1)[C@]1(C)CCN(C)[C@@H]1N2C [physostigmine, reference compound]
- response vs control in vivo at 0.2 mg/kg [3, 9]: 453 ± 222%
- response vs control in vivo at 0.4 mg/kg ([3]; Mus musculus, 0.4 mg/kg sc, 30 min before hypoxia, read-out: Protection (survival time)): 552 ± 210%

Structure (SMILES): C#CCNC1CCc2ccc(OC(=O)N(CC)CCCC)cc21 (stereo not drawn) [Compound 83]
- IC50 [1, 10]: 80 µM

Structure (SMILES): CCCC(C)C1(CC)C(=O)N=C([O-])NC1=O.[Na+] (stereo not drawn) [Nembutal]
- Protection (survival time) ([3]; 40 mg/kg, 30 min before hypoxia): 253 ± 200 % of control

Structure (SMILES): C#CCNC1CCc2ccc(OC(=O)N(C)C)cc21 (single isomer, unassigned) [Compound 55]
- MAO-A Inhibition Ex vivo ED50 [6]: >100 µmol/kg
- MAO-B Inhibition Ex vivo ED50 [7]: >100 µmol/kg

Structure (SMILES): C#CCNC1CCc2ccc(OC(=O)N(C)C)cc21 (single isomer, unassigned) [Compound 54]
- MAO-A Inhibition Ex vivo ED50 [6]: >100 µmol/kg
- MAO-B Inhibition Ex vivo ED50 [7]: >100 µmol/kg

Structure (SMILES): C#CCNC1CCc2ccc(OC(=O)NCC)cc21 (stereo not drawn) [Compound 56]
- IC50 [1, 10]: 11.5 µM
- AChE Inhibition Ex vivo ED50 (AC) [4]: 180 µmol/kg

Structure (SMILES): C#CCNC1CCc2cccc(OC(=O)N(C)CCC)c21 (stereo not drawn) [Compound 28]
- IC50 [1, 10]: 100 µM

Structure (SMILES): C#CCNC1CCc2ccc(OC(=O)N(CC)C3CCCCC3)cc21 (stereo not drawn) [Compound 85]
- IC50 [1, 10]: 17 µM
- AChE Inhibition Ex vivo ED50 (AC) [4]: >100 µmol/kg

Structure (SMILES): CCN(C)C(=O)Oc1ccc2c(c1)C(N)CC2 (stereo not drawn) [Compound 3, 6-(N-Me,N-Et Carbamyloxy) aminoindan HCl]
- AChE Inhibition Ex vivo ED50 (AC) [4]: 46.3 µmol/kg
- AChE Inhibition Time to peak activity t ([4]; mouse, in vivo): 60 to 90 min
- AChE Inhibition Time to return to 50% of peak t ([4]; mouse, in vivo): >180 min
- Acute Toxicity LD50 (LD) [5]: 950 µmol/kg
- IC50 ([2]; MAO-A Inhibition In vitro IC50, rat brain homogenate): 12.6 µM

Structure (SMILES): CN(C)C(=O)Oc1cccc([N+](C)(C)C)c1 [neostigmine, reference compound]
- response vs control in vivo at 0.2 mg/kg [3, 9]: 141 ± 32%
